Each structure is given as a SMILES string.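 Assay format: 96-well plates, 48-hour exposure. GI50 = concentration required for 50% inhibition of growth.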 The source made the active and inactive calls. Cut-off read from the data, not from the text of the source: active = GI50 up to about 1.1 µM and inactive = higher.

Some test systems named below: 786-0; K562; SF-295; PC-3; HCT-15; HT-29; DU-145; MDA-MB-231; OVCAR-8; A549; RXF 393; RPMI-8226; MDA-N; OVCAR-3; SK-MEL-2; Malme-3M; MCF7; SF-539; HOP-92.
Test in all cases: DTP human tumour cell line panel, 48 h

Regarding `CN1CCCN(C)CCCN(C)CCCN(C)CCC1`, the GI50 was > 100 µM (inactive) with 786-0; > 100 µM (inactive) in the experiment on K562; > 100 µM (inactive) in the experiment with SF-295; > 100 µM (inactive) in the experiment on PC-3; over 100 µM in the experiment with HCT-15; > 100 µM (inactive) in the experiment with HT-29. Further, the GI50 with DU-145, in the experiment on MDA-MB-231, in the experiment with OVCAR-8, with A549, in the experiment with RXF 393 and in the experiment on RPMI-8226 was > 100 µM (inactive) in each case. In addition, the GI50 in the experiment on MDA-N, in the experiment on OVCAR-3, with SK-MEL-2, in the experiment with Malme-3M and in the experiment on MCF7 was > 100 µM (inactive) each time.

On to `COc1cccc(C=C2N=C(C)N(n3c(-c4ccccc4)nc4ccccc4c3=O)C2=O)c1`, for which the GI50 in the experiment with 786-0 was > 100 µM (inactive); in the experiment on K562, > 100 µM (inactive); in the experiment with SF-295 it was 95.5 µM (inactive); in the experiment on PC-3, > 100 µM (inactive); in the experiment with HCT-15, 77.1 µM; with HT-29, > 100 µM (inactive). Also, the GI50 is > 100 µM (inactive) in the experiment on DU-145; > 100 µM (inactive) with MDA-MB-231; > 100 µM (inactive) in the experiment with OVCAR-8; > 100 µM (inactive) in the experiment with A549; > 100 µM (inactive) with SF-539; 59 µM (inactive) in the experiment with RPMI-8226. The GI50 in the experiment on MDA-N was > 100 µM (inactive); in the experiment on MCF7 it was 83.4 µM (inactive).

As to `CCc1nnc(CC)n1-n1c(Cc2ccccc2)n[nH]c1=O`, the GI50 was > 100 µM (inactive) with HOP-92; > 100 µM (inactive) with 786-0; > 100 µM (inactive) with K562; > 100 µM (inactive) in the experiment on SF-295; > 100 µM (inactive) in the experiment on PC-3; over 100 µM in the experiment on HCT-15. In addition, the GI50 with HT-29, with DU-145, in the experiment on MDA-MB-231, with OVCAR-8, with A549 and with RXF 393 was > 100 µM (inactive) throughout. Moreover, the GI50 in the experiment with SF-539, in the experiment on RPMI-8226, in the experiment with MDA-N, with OVCAR-3, with SK-MEL-2 and with MCF7 was > 100 µM (inactive) each time.

As for `CNC(=O)c1nnn(Cc2ccccc2)c1S`, the GI50 was > 100 µM (inactive) with 786-0; > 100 µM (inactive) in the experiment with K562; > 100 µM (inactive) with SF-295; > 100 µM (inactive) in the experiment with PC-3; over 100 µM in the experiment on HCT-15; > 100 µM (inactive) with HT-29. The GI50 in the experiment on DU-145, in the experiment with MDA-MB-231, in the experiment on OVCAR-8, in the experiment on A549, in the experiment on RXF 393 and in the experiment with RPMI-8226 was > 100 µM (inactive) each time. Also, the GI50 in the experiment on MDA-N, with OVCAR-3, with SK-MEL-2 and in the experiment with MCF7 was > 100 µM (inactive) each time.

`CC1CCC2C(C)C(=O)OC2C2(C)C(=O)C=CC12` (configuration not stated): the GI50 in the experiment on HOP-92 is > 10 µM (inactive); in the experiment on 786-0 it was > 10 µM (inactive); in the experiment on K562, 4.57 µM (inactive); in the experiment on SF-295, > 10 µM (inactive); in the experiment with PC-3 it was > 10 µM (inactive); in the experiment on HCT-15 it was over 10 µM. For the same compound, the GI50 with HT-29, in the experiment with DU-145, in the experiment with MDA-MB-231, in the experiment with OVCAR-8, in the experiment on A549 and in the experiment with RXF 393 was > 10 µM (inactive) in each case. Further, the GI50 in the experiment on SF-539 was > 10 µM (inactive); in the experiment on RPMI-8226, 8.47 µM (inactive); in the experiment with MDA-N it was 6.14 µM (inactive); in the experiment with OVCAR-3, > 10 µM (inactive); with SK-MEL-2 it was 9.4 µM (inactive); with MCF7, 8.79 µM (inactive).

In the case of `CCOC(=O)Cc1cc(=O)oc2cc(O)ccc12`, the GI50 with 786-0 was > 100 µM (inactive); with K562 it was > 100 µM (inactive); in the experiment on SF-295 it was > 100 µM (inactive); in the experiment on PC-3 it was > 100 µM (inactive); in the experiment with HCT-15, over 100 µM; in the experiment with HT-29, > 100 µM (inactive). For the same compound, the GI50 in the experiment with DU-145, with MDA-MB-231, with OVCAR-8, in the experiment on A549, in the experiment with RXF 393 and in the experiment on SF-539 was > 100 µM (inactive) throughout. In addition, the GI50 in the experiment with RPMI-8226, with MDA-N, in the experiment with OVCAR-3, in the experiment with SK-MEL-2 and in the experiment on Malme-3M was > 100 µM (inactive) in each case.

On to `COc1cc(/C=C2/SC(c3ccccc3)N(c3ccc(NC(C)=O)cc3)C2=O)cc(OC)c1OC` (configuration not stated), for which the GI50 in the experiment on HOP-92 is 37.3 µM (inactive); in the experiment with 786-0 it was > 100 µM (inactive); with K562, 49.4 µM (inactive); in the experiment on SF-295 it was 61.2 µM (inactive); with HCT-15, over 100 µM; in the experiment on HT-29 it was > 100 µM (inactive). The GI50 was > 100 µM (inactive) in the experiment on DU-145; > 100 µM (inactive) in the experiment with MDA-MB-231; > 100 µM (inactive) in the experiment with OVCAR-8; > 100 µM (inactive) with A549; 64.4 µM (inactive) with RXF 393; > 100 µM (inactive) with SF-539. The GI50 in the experiment on RPMI-8226 was 36.8 µM (inactive); in the experiment with MDA-N it was 82.6 µM (inactive); in the experiment on OVCAR-3, > 100 µM (inactive); in the experiment on SK-MEL-2, > 100 µM (inactive); in the experiment with Malme-3M, 54.1 µM (inactive); in the experiment with MCF7, 76.9 µM (inactive).

For the compound `CC(N)(Cc1c[nH]c2ccccc12)C(=O)O` (configuration not stated), the GI50 in the experiment with 786-0 is > 100 µM (inactive); with K562, > 100 µM (inactive); in the experiment on SF-295, > 100 µM (inactive); in the experiment with PC-3, > 100 µM (inactive); in the experiment on HCT-15, over 100 µM; in the experiment on HT-29, > 100 µM (inactive). The GI50 in the experiment with DU-145, with MDA-MB-231, with OVCAR-8, in the experiment on A549, in the experiment with RXF 393 and in the experiment on SF-539 was > 100 µM (inactive) in each case. Also, the GI50 in the experiment on RPMI-8226, in the experiment on MDA-N, in the experiment on OVCAR-3, in the experiment on SK-MEL-2, in the experiment with Malme-3M and with MCF7 was > 100 µM (inactive) throughout.

Consider `COc1cc2c(c(OC)c1)/C(=C/Sc1ccccc1)C(=O)N(C(C)(C)C)C2`, for which the GI50 is 1.41 µM (inactive) with HOP-92; 28.5 µM (inactive) in the experiment on 786-0; 37.8 µM (inactive) in the experiment on K562; 27.2 µM (inactive) in the experiment on SF-295; 22.4 µM (inactive) with PC-3; 30.3 µM with HCT-15. Moreover, the GI50 in the experiment on HT-29 was 22.9 µM (inactive); with DU-145 it was > 100 µM (inactive); in the experiment on MDA-MB-231, 23.4 µM (inactive); in the experiment on OVCAR-8, 25.6 µM (inactive); in the experiment on SF-539, 44.7 µM (inactive); in the experiment with RPMI-8226, 26.1 µM (inactive). The GI50 is 23.5 µM (inactive) in the experiment on MDA-N, 22.5 µM (inactive) in the experiment on OVCAR-3, 20.2 µM (inactive) in the experiment with SK-MEL-2 and 29.8 µM (inactive) in the experiment with MCF7.

On to `CCOC(=O)NNC(=O)NCc1ccccc1CNC(=O)NNC(=O)OCC`, for which the GI50 is > 100 µM (inactive) in the experiment on 786-0; > 100 µM (inactive) with K562; > 100 µM (inactive) with PC-3; over 100 µM in the experiment on HCT-15; > 100 µM (inactive) with HT-29; > 100 µM (inactive) with DU-145. In addition, the GI50 in the experiment with MDA-MB-231, in the experiment with OVCAR-8, in the experiment with A549, in the experiment on RXF 393, in the experiment with SF-539 and in the experiment with RPMI-8226 was > 100 µM (inactive) each time. Also, the GI50 in the experiment with MDA-N, in the experiment with OVCAR-3, in the experiment with SK-MEL-2, in the experiment with Malme-3M and with MCF7 was > 100 µM (inactive) throughout.

As to `COC(=O)C1(O)C(c2ccccc2)=NC2(C)CCCC21` (configuration not stated), the GI50 with HOP-92 was > 100 µM (inactive); in the experiment with 786-0, > 100 µM (inactive); with K562 it was > 100 µM (inactive); with SF-295, > 100 µM (inactive); in the experiment on PC-3, > 100 µM (inactive); in the experiment on HCT-15 it was over 100 µM. Also, the GI50 in the experiment on HT-29, in the experiment on DU-145, in the experiment with MDA-MB-231, with OVCAR-8, with A549 and in the experiment on RXF 393 was > 100 µM (inactive) in each case. In addition, the GI50 in the experiment on RPMI-8226, in the experiment on MDA-N, with OVCAR-3, with SK-MEL-2 and in the experiment with Malme-3M was > 100 µM (inactive) throughout.

Regarding `CC(C)=CCc1cc2c(cc1O)OC[C@H]1c3cc4c(cc3O[C@@H]21)OCO4`, the GI50 with HOP-92 is 23 µM (inactive); in the experiment with 786-0 it was 42.1 µM (inactive); with K562 it was 36.7 µM (inactive); with SF-295, > 100 µM (inactive); in the experiment on PC-3, 23.3 µM (inactive); with HCT-15 it was 35.8 µM. The GI50 in the experiment on HT-29 was > 100 µM (inactive); in the experiment with DU-145, 38.8 µM (inactive); in the experiment on MDA-MB-231, 40.3 µM (inactive); in the experiment on OVCAR-8, > 100 µM (inactive); with A549, 80.4 µM (inactive); in the experiment with RXF 393 it was 21.4 µM (inactive). Moreover, the GI50 in the experiment on SF-539 was 36.7 µM (inactive); with MDA-N it was 20.6 µM (inactive); in the experiment on OVCAR-3, 37.2 µM (inactive); with MCF7, 25.3 µM (inactive).

The record behind these values is ChEMBL document CHEMBL1201862, “PubChem BioAssay data set” (2004).
